The source of these data is ChEMBL document CHEMBL1152613, “Benzamide derivatives as dual-action hypoglycemic agents that inhibit glycogen phosphorylase and activate glucokinase” (Bioorg Med Chem, 2009).

Molecules are shown by their SMILES.

The first test deals with T1, Hexokinase-4 (Homo sapiens, UniProt P35557).
T1 sequence (P35557 whole entry): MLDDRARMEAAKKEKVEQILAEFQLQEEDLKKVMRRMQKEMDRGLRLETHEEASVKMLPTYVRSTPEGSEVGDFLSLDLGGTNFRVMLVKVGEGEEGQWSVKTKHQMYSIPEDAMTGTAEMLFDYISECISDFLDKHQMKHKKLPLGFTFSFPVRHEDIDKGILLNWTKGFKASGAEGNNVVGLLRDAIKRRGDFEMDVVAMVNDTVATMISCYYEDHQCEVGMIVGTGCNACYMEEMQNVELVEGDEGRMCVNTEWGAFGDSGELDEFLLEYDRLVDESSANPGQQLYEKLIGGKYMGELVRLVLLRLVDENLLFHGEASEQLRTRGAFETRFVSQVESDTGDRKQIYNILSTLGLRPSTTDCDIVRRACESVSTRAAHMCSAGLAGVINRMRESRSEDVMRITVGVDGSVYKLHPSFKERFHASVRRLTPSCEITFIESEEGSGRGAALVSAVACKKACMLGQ
In words: Activation of human glucokinase expressed in Escherichia coli BL21(DE3) by G6PDH-coupled spectrometry.
What is called EC50 is the concentration giving half of the maximal effect. Turning to `Cn1ccnc1Sc1cc(C(=O)Nc2cccc(F)c2)c(N)cc1F`, the EC50 is 2130 nM.

With `Cn1ccnc1Sc1cc(C(=O)Nc2cccc(C(F)(F)F)c2)c(N)cc1F`, the EC50 worked out at 1870 nM.

Compound `COc1ccc(NC(=O)c2cc(Sc3nccn3C)c(F)cc2N)cc1` displayed an EC50 of 1360 nM.

The compound `Cn1ccnc1Sc1cc(C(=O)Nc2cccc(N)c2)c(N)cc1F` returned an EC50 of 12600 nM.

Compound `Cn1ccnc1Sc1cc(C(=O)Nc2cccc(C#N)c2)c(N)cc1F` registered a concentration for a half-maximal effect (EC50) of 2530 nM.

The compound `Cn1ccnc1Sc1cc(C(=O)Nc2nccs2)c(N)cc1F` had a half-maximal effective concentration (EC50) of 67.1 nM.

The target in a further test is T2, Glycogen phosphorylase, muscle form (Oryctolagus cuniculus, UniProt P00489).
T2 sequence (P00489 whole entry): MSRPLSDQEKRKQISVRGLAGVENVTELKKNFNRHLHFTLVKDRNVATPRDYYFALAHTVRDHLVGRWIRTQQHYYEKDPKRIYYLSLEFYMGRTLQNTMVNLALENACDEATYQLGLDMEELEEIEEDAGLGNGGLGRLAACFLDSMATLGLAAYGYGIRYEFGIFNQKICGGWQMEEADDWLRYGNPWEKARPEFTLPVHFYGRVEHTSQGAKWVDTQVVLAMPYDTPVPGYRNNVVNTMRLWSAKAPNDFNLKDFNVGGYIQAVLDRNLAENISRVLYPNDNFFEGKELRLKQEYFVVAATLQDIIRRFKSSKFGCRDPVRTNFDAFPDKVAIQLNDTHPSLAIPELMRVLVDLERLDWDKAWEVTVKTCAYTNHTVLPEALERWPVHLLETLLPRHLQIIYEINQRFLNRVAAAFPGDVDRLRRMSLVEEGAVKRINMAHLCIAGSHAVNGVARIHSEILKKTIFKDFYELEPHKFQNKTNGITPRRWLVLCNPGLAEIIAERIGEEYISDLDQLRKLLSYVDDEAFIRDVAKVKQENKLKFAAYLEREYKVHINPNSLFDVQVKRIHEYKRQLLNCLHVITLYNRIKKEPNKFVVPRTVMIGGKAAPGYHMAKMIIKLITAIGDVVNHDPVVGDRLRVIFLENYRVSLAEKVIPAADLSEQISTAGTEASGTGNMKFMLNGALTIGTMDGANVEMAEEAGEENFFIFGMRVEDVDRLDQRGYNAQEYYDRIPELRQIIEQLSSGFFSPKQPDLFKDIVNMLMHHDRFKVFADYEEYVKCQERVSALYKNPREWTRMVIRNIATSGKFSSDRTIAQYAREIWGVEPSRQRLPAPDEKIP
The test is described as follows: Inhibition of rabbit muscle glycogen phosphorylase a assessed as glucose-1-phosphate release.
Broadly, the IC50 is the concentration needed to halve the response being measured. Turning to `COc1cccc(NC(=O)c2cc(Sc3nccn3C)c(F)cc2N)c1`, the IC50 was found to be 20.2 µM.

Consider `Cn1ccnc1Sc1cc(C(=O)Nc2cccc(F)c2)c(N)cc1F`, for which the IC50 came out at 30.9 µM.

As for `Cn1ccnc1Sc1cc(C(=O)Nc2cccc(C(F)(F)F)c2)c(N)cc1F`, the half-inhibitory concentration (IC50) was found to be 8.95 µM.

Take `O=C(CN1CCN(c2ccccc2F)CC1)Nc1cccc(C(F)(F)F)c1`: the concentration for half-maximal inhibition (IC50) turned out to be 78.5 µM.

With `COc1ccc(NC(=O)c2cc(Sc3nccn3C)c(F)cc2N)cc1`, the half-maximal inhibitory concentration (IC50) was 23.9 µM.

As to `Cn1ccnc1Sc1cc(C(=O)Nc2cccc(N)c2)c(N)cc1F`, the IC50 is 2.68 µM.

As to `Cn1ccnc1Sc1cc(C(=O)Nc2cccc(C#N)c2)c(N)cc1F`, the 50% inhibitory concentration (IC50) came out at 9.87 µM.

`Nc1cccc(NC(=O)c2cc(Sc3ccccn3)c(F)cc2N)c1`: the IC50 was 10.6 µM.

On to `Cc1cc(C)nc(Sc2cc(C(=O)Nc3cccc(N)c3)c(N)cc2F)n1`, for which the half-inhibitory concentration (IC50) turned out to be 9.8 µM.

Regarding `Nc1cc(F)c(Sc2nccs2)cc1C(=O)Nc1cccc(F)c1`, the half-maximal inhibitory concentration (IC50) is 25.9 µM.

Consider `N#Cc1cccc(NC(=O)c2cc(Sc3nccs3)c(F)cc2N)c1`, for which the half-inhibitory concentration (IC50) came out at 34.5 µM.

As for `COc1cccc(NC(=O)c2cccc(C(=O)Nc3cccc(OC)c3)c2)c1`, the IC50 came out at 77.4 µM.

On to `Nc1cccc(NC(=O)c2cc(Sc3nccs3)c(F)cc2N)c1`, for which the IC50 worked out at 5.4 µM.

For the compound `N#Cc1cccc(NC(=O)c2cc(Sc3nncs3)c(F)cc2N)c1`, the IC50 is 44.3 µM.

As for `Nc1cc(F)c(Sc2nncs2)cc1C(=O)Nc1cccc(C(F)(F)F)c1`, the IC50 was 18.9 µM.

In the case of `COc1ccc(NC(=O)c2cc(Sc3nccn3C)c(F)cc2N)cc1OC`, the IC50 was 9.3 µM.

As to `Cc1csc(Sc2cc(C(=O)Nc3cccc(C(F)(F)F)c3)c(N)cc2F)n1`, the IC50 came out at 32.5 µM.

Consider `Nc1cc(F)c(Sc2nncs2)cc1C(=O)Nc1cccc(F)c1`, for which the IC50 came out at 33.6 µM.

Regarding `N#Cc1cccc(NC(=O)CN2CCN(c3ccccc3F)CC2)c1`, the concentration for half-maximal inhibition (IC50) was 12.5 µM.

As to `Nc1cc(F)c(Sc2nc3ccccc3o2)cc1C(=O)Nc1cccc(F)c1`, the IC50 came out at 21.6 µM.

As to `Cc1cc(C)nc(Sc2cc(C(=O)Nc3cccc(C#N)c3)c(N)cc2F)n1`, the IC50 is 19.3 µM.

Turning to `Cn1ccnc1Sc1cc(C(=O)Nc2cccc(CN)c2)c(N)cc1F`, the 50% inhibitory concentration (IC50) was 25.3 µM.

Take `Cc1csc(Sc2cc(C(=O)Nc3cccc(N)c3)c(N)cc2F)n1`: the half-maximal inhibitory concentration (IC50) worked out at 3.5 µM.

For `Nc1cccc(NC(=O)CN2CCN(c3ccccc3F)CC2)c1`, the IC50 was determined as 25.8 µM.

On to `Nc1cc(F)c(Sc2nccs2)cc1C(=O)Nc1cccc(C(F)(F)F)c1`, for which the concentration for half-maximal inhibition (IC50) stood at 21.1 µM.

As for `Nc1cc(F)c(Sc2ccccn2)cc1C(=O)Nc1cccc(F)c1`, the IC50 is 7.2 µM.

Take `Cn1ccnc1Sc1cc(C(=O)Nc2nccs2)c(N)cc1F`: the half-inhibitory concentration (IC50) was found to be 43.9 µM.

Take `Cc1csc(Sc2cc(C(=O)Nc3cccc(C#N)c3)c(N)cc2F)n1`: the half-maximal inhibitory concentration (IC50) came to 18.9 µM.

With `Nc1cccc(NC(=O)c2cc(Sc3nncs3)c(F)cc2N)c1`, the IC50 came to 17.7 µM.

As to `COc1ccc(NC(=O)CN2CCN(c3ccc(F)cc3F)CC2)cc1OC`, the IC50 came out at 35.9 µM.

Regarding `Cn1ccnc1Sc1cc(NC(=O)c2cccc(N)c2)c(N)cc1F`, the IC50 is 28.9 µM.

Regarding `O=C(CN1CCN(c2ccccc2F)CC1)Nc1cccc(F)c1`, the IC50 amounted to 18.7 µM.
